According to patent US20010041801A1, “Water soluble fullerenes with antiviral activity” (The Regents of the University of California, priority 1994, published 2001):
Several values for one entry are separate records, joined by “and”; a condition that tells them apart may be missing. Equal entries are not always repeated. Entries after “also recorded” stand apart in the source; their conditions may differ. Where two headings read alike, the source gives them in different places.

Legend:
HIV-1III = assay: Antiviral activity in chronically infected H9 cells, virus RT level; format: cell-based; conditions: Human immunodeficiency virus 1, H9, 144 h, read-out: Antiviral Activity (EC50) in H9 cells infected with HIV-1III
Procedure: Compound 2c was evaluated for antiviral activity in cells acutely and chronically infected with human immunodeficiency virus (HIV). Reverse transcriptase (RT) levels associated with virus were determined with virus concentrated from cell culture supernatants by high-speed centrifugation to reduce the chances of drug carryover in the enzyme assay using the method described in R. F. Schinazi, et al., Antimicrob. Agents Chemother., 36:2423-2431, 1992.

[1] = Cytotoxicity in uninfected PBMC; format: cell-based, human; conditions: human, uninfected PBMC; thymidine uptake day 2 and cell counts day 6
PBMC = assay: Cytotoxicity in uninfected PBMC; format: cell-based, human; conditions: b68: up to 100 μM
HIV-1 RT = HIV-1 RT (Human immunodeficiency virus type 1 group M subtype B, UniProt P04585); assay: Inhibition of recombinant p66/51 HIV-1 RT, poly(rA)n.oligo(T)12-18 template-primer; format: biochemical; conditions: IC50 Polymerases: HIV-1 RT, cell-free; AZT-5′-triphosphate used for AZT
Procedure: The compound was also evaluated for its inhibitory effect on recombinant p66/51 HIV-1 RT by using poly(rA)n.oligo(T)12-18 as the template-primer as described in Schinazi, et al. (1992, supra). Compound 2c was active against this enzyme, with a median inhibitory concentration (1C50) of 4.6 μM. This value was of the same order of magnitude as that noted for the antiviral assays (TABLE 3). […] AZT-5′ triphosphate and phosphonoformate (PFA), used as positive controls, were effective and selective against HIV-1 RT.

HIV-1LAI = assay: Virus inactivation assay with cell-free virus; format: cell-based; conditions: 5 to 25 μM; cell-free virus incubated 2 hours at 37° C.; RT assay day 6
Procedure: Cell culture evaluation techniques well known in the art can also be used to determine the antiviral and antivirucidal properties of the compounds of this invention. For instance about 200 50% tissue culture infective doses of the virus to be tested and 2 ml of the compound to be tested are incubated for 2 hours at 37° C. After incubation, a growth medium is added to each tube and the tube is centrifuged at about 40,000 rpm for 30 minutes at 4° C. The supernatant is removed and the virus pellet is resuspended in fresh medium. The virions are added to human PBMC that has been stimulated for 2 days with phytohemagglutinin in 25 cm^2 flasks in a total of 10 ml of growth medium. After about six days, residual virus in the supernatant are quantitated by an RT assay such as that described by R. F. Schinazi, et al., Antimicrob. Agents Chemother., 36:2423-2431, 1992, or in Current Protocols in Molecular Biology, Ed. by F. M. Ausubel, Current Protocols, Vol. 1, §9.13.3 and in Example 8, Table 2 below.
To confirm these findings, inactivation studies with HIV-1LAI were performed. […] On day 6, residual virus in the supernatant was quantitated by an RT assay, as described previously (R. F. Schinazi, et al., Antimicrob. Agents Chemother., 36:2423-2431, 1992). […]

[2] = system: nevirapine (BI-RG587)-resistant HIV-1; assay: Susceptibility of nevirapine-resistant HIV-1; format: cell-based; conditions: Human immunodeficiency virus 1, read-out: EC50 against nevirapine-resistant HIV-1
pepsin = pepsin (Homo sapiens, UniProt P0DJD8); assay: Pepsin inhibition assay; format: biochemical; conditions: 0.028 μM enzyme, 0.2 M sodium citrate pH 2.0, 37° C.; read-out: IC50 against pepsin
Chain of pepsin (P0DJD8 63-388): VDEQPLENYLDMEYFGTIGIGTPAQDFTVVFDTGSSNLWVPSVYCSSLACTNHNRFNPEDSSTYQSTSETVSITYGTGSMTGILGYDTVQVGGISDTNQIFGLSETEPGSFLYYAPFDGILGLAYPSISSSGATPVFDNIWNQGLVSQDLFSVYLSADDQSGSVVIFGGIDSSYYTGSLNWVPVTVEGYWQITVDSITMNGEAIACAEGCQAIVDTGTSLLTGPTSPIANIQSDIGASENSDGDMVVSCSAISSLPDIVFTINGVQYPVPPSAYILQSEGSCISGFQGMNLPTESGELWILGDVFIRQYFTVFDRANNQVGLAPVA
From the text: Compound 2c also has antiprotease activity. […] The method used for the assay was similar to that described by Ido, et al., J. Biol. Chem., 266:24359-24366, 1991).

HIV-1 and HIV-2 = assay: Antiviral activity in acutely or chronically infected human lymphocytes (summary statements); format: cell-based
From the text: The water soluble C60 derivatives for inactivating HIV by interacting with HIV by Van der Waals contacts with the nonpolar HIVP surface, are substituted symmetrically with organic moieties comprising from 1 to about 20 carbon atoms each and optionally further comprising polar heteroatoms, such as oxygen and nitrogen. The preferred fullerene derivatives are diamino derivatives synthesized in three steps from C60 via a suitably substituted diphenyldiazomethane. High-resolution mass spectrometric analysis of these compounds is possible only under the mild conditions of matrix-assisted laser desorption/ionization Fourier transform mass spectrometry. Direct infrared or ultraviolet laser desorption degrades the compounds so that only C60 ions are observed, in either positive or negative mode. Virus inactivation assays are provided for confirming activity of the C60 derivatives against human immunodeficiency virus type 1 (HIV-1) and HIV-2. […] Inhibition of protease (HIVP) and reverse transcriptase (HIVRT) is also shown.
The therapeutic and prophylactic efficacy of the compounds of this invention has been shown by in vitro assays. […]

Solubility in water = conditions: pH≧7

For O=C(O)CCC(=O)NCCc1ccc(C2(c3ccc(CCNC(=O)CCC(=O)O)cc3)C34c5c6c7c8c9c%10c(c%11c%12c3c3c5c5c%13c6c6c7c7c9c9c%14c%10c%10c%11c%11c%12c%12c3c3c5c5c%13c%13c6c6c7c9c7c9c%14c%10c%10c%11c%11c%12c3c3c5c5c%13c6c7c6c9c%10c%11c3c56)C824)cc1 [Compound 2c, bis(monosuccinimide) derivative of p,p′-bis(2-aminoethyl)diphenyl-C60], the EC50 (HIV-1III) was 10.8 ± 8.2 µM, the IC50 [1] was > 100 µM and the “cytotoxicity in uninfected PBMC (words)” value (PBMC) was “No cytotoxicity; also recorded: noncytotoxic”. For the same compound, the “cytotoxicity in uninfected PBMC (words)” value (PBMC; listed as bis(monosuccinimide) derivative of p,p′-bis(2-aminoethyl)-diphenyl) was “no cytotoxicity”, the IC50 (HIV-1 RT) was 4.6 µM and ~5 µM and the “reduction of virus infectivity relative to untreated control” value (HIV-1LAI) was “more than 95%”. It also gave an EC50 [2] of 8.7 µM, an IC50 (pepsin) of 20 µM and an EC50 (HIV-1 and HIV-2; Human immunodeficiency virus 1, H9, HIV-1, summary, read-out: EC50, acutely and chronically HIV-1 infected PBMC and chronically infected H9 cells) of 7 µM. For the same compound, the EC50 (HIV-1 and HIV-2; Lymphocyte, average over assays, read-out: EC50 averaging, HIV-1 and HIV-2 in acute or chronically infected human lymphocytes) was ~6 µM and the “solubility in water” value (Solubility in water) was “soluble”.
